Reference: patent publication US12090140B2, “Non-sedating dexmedetomidine treatment regimens” (priority 2023, dated 2024)
Values joined by “and” are separate entries in the source; they are usually repeats but may differ in a detail not shown here. Equal values may be shown once. Where a name gives a salt, the structure may show the parent alone. Read-outs that look alike come from different tables or passages of the source.

Tests used:
[1] = tested on: subjects suffering from schizophrenia; conditions: for RASS values after infusion start, individual patients: IV infusion, treatment arm
From the text: Another Key Objective of the study was to determine the reduction in the level of agitation, as determined by their PEC score, at the doses to achieve a RASS of −1.
Patients 5, 7, 8 and 9 received placebo.

[2] = tested on: agitation in subjects suffering from schizophrenia
[3] = IV infusion
From the text: (§1) Mean infusion rate is 0.36 mcg/kg/hr with the maximum rate ranging from about 0.2 mcg/kg/hr to about 0.6 mcg/kg/hr (see FIGS. 18 to 20).

clinical = conditions: human, in vivo, iv
From the text: as §1

plasma proteins = conditions: in vitro; cited from earlier work
[4] = pH 7.4; cited from earlier work
[5] = cited from earlier work; for Mean clearance relative to subjects with normal hepatic function: IV infusion of 0.6 meg/kg over 10 minutes
[6] = tested on: adult patients and healthy adult subjects; conditions: cited from earlier work
[7] = IV infusion from 0.2 mcg/kg/hr, rising 0.1 mcg/kg/hr every 30 minutes

Structure (SMILES): Cc1cccc([C@H](C)c2cnc[nH]2)c1C [Dexmedetomidine hydrochloride, 4-[(1S)-1-(2,3-dimethylphenyl)ethyl]-1H-imidazole hydrochloride]
- RASS values after infusion start, individual patients ([1]; 15 minutes, hydrochloride): −2 and −1
- RASS values after infusion start, individual patients ([1]; 30 minutes): 0
- RASS values after infusion start, individual patients ([1]; 75 minutes): −1
- RASS values after infusion start, individual patients ([1]; 90 minutes): 0
- Patients achieving a RASS score of at least −1 [1, 7]: 9 out of 10
- RASS values after infusion start, individual patients ([1]; […]): 0
- Patients with agitation reduced to a minimum (PEC score of 7 or below) [2, 7]: 9 out of 10
- Subjects with >=50% reduction in PEC score ([2]; IV route): 7 of 10
- Subjects with a 40% reduction in PEC score at a Cmax of =<72 μg/mL ([2]; IV route): 5 of 10
- Plasma level concentration ([3]; Patient 1 (treatment), 15 min): 0.02245 ng/mL
- Plasma level concentration ([3]; Patient 1 (treatment), 30 min): 0.01472 ng/mL
- Plasma level concentration ([3]; Patient 4 (treatment), 90 min): 0.0443 ng/mL
- Plasma level concentration ([3]; Patient 11 (treatment), 15 min): 0.04101 ng/mL
- Plasma level concentration ([3]; Patient 11 (treatment), 30 min): 0.06291 ng/mL
- Plasma level concentration ([3]; Patient 11 (treatment), 45 min): 0.12407 ng/mL
- Plasma level concentration ([3]; Patient 11 (treatment), 60 min): 0.15047 ng/mL
- Plasma level concentration ([3]; Patient 12 (treatment), 30 min): 0.04487 ng/mL
- Plasma level concentration ([3]; Patient 12 (treatment), 45 min): 0.05051 ng/mL
- Plasma level concentration ([3]; Patient 12 (treatment), 60 min): 0.1086 ng/mL
- Plasma level concentration ([3]; Patient 12 (treatment), 75 min): 0.15854 ng/mL
- Plasma level concentration ([3]; Patient 12 (treatment), 90 min): 0.23783 ng/mL
- Plasma level concentration ([3]; Patient 14 (treatment), 30 min): 0.05266 ng/mL
- Plasma level concentration ([3]; Patient 14 (treatment), 45 min): 0.04653 ng/mL
- Plasma level concentration ([3]; Patient 14 (treatment), 60 min): 0.4063 ng/mL
- Plasma level concentration ([3]; Patient 16 (treatment), 15 min): 0.00256 ng/mL
- Plasma level concentration ([3]; Patient 16 (treatment), 30 min): 0.01559 ng/mL
- Plasma level concentration ([3]; Patient 16 (treatment), 45 min): 0.04117 ng/mL
- Plasma level concentration ([3]; Patient 16 (treatment), 60 min): 0.06788 ng/mL
- Plasma level concentration ([3]; Patient 16 (treatment), 75 min): 0.07226 ng/mL
- Plasma level concentration ([3]; Patient 17 (treatment), 15 min): 0.01587 ng/mL
- Plasma level concentration ([3]; Patient 17 (treatment), 45 min): 0.03993 ng/mL
- Plasma level concentration ([3]; Patient 18 (treatment), 15 min): 0.04836 ng/mL
- Plasma level concentration ([3]; Patient 18 (treatment), 30 min): 0.05453 ng/mL
- Cmax (clinical): 0.022 ng/mL
- Displacement of phenytoin, warfarin, ibuprofen, propranolol, theophylline and digoxin (plasma proteins): none of these compounds appeared to be significantly displaced
- Partition coefficient in octanol/water [4]: 2.89

Structure (SMILES): Cc1cccc([C@H](C)c2c[nH]cn2)c1C [intravenous dexmedetomidine]
- Effect of sex on pharmacokinetics ([5]; intravenous): no observed difference
- Mean clearance relative to subjects with normal hepatic function ([5]; mild hepatic impairment): 74%
- Mean clearance for free drug relative to subjects with normal hepatic function ([5]; mild hepatic impairment): 59%
- Mean clearance relative to subjects with normal hepatic function ([5]; moderate hepatic impairment): 64%
- Mean clearance for free drug relative to subjects with normal hepatic function ([5]; moderate hepatic impairment): 51%
- Mean clearance relative to subjects with normal hepatic function ([5]; severe hepatic impairment): 53%
- Mean clearance for free drug relative to subjects with normal hepatic function ([5]; severe hepatic impairment): 32%
- Effects of overdose ([6]; IV 2 mcg/kg loading dose over 10 minutes, two patients): bradycardia and/or hypotension
- Maximum blood concentration in tolerability study ([6]; IV doses at and above 0.2 to 0.7 mcg/kg/hour, healthy adult subjects): approximately 13 times the upper boundary of the therapeutic range
- Most notable effects at the highest doses ([6]; IV tolerability study, two subjects): first degree atrioventricular block and second-degree heart block
- Adult patients with at least 1 event related to withdrawal, n (%) ([6]; IV up to 7 days, within the first 24 hours after discontinuing): 12 (5%)
- Adult patients with at least 1 event related to withdrawal, n (%) ([6]; IV, 24 to 48 hours after discontinuing): 7 (3%)
- Frequency of tachycardia and hypertension requiring intervention ([6]; IV, 48 hours following discontinuation): < 5%
